From patent US20250026765A1, “SPIROHETEROCYCLE DERIVATIVE HAVING SEROTONIN RECEPTOR BINDING ACTIVITY” (Shionogi & Co., Ltd., priority 2021, published 2025)
Where two headings read alike, the source gives them in different places.

Assays:
[1] = target: human recombinant 5-HT2C receptor (Homo sapiens (Human), UniProt P28335); assay: 5-HT2C receptor binding inhibition test ([3H]-Mesulergine); settings: Jump-In HEK cell membrane, 37° C. 2 hours
Description: Test Example 2: 5-HT2C Receptor Binding Inhibition Test
(§1) (Each Experimental Condition)
Cell membrane: 0.5 μg of Jump-In HEK cell membrane (expressing human recombinant 5-HT2C receptor) per well
(§2) Assay buffer: Tris-HCl 50 mmol/L (pH 7.4) containing NaCl 120 mmol/L, MgCl2·6H2O 1 mmol/L, KCl 5 mmol/L, 0.1% BSA and CaCl2 2 mmol/L
Radioactive ligand: [^3H]-Mesulergine with a final concentration of around Kd value calculated by the following method
Non-specific ligand: Serotonin HCl with a final concentration of […]
(§3) The Kd value is calculated when the lot of cell membrane is changed. In advance, 0.5 μL of a 1 mmol/L compound for non-specific binding calculation dissolved in DMSO or DMSO is dispensed into a microplate, and the cell membrane is diluted with an Assay buffer. The radioactive ligand solution is serially diluted and the count is confirmed with a liquid scintillator. Assay buffer containing diluted cell membrane is dispensed into a microplate at 50 μL/well. Then, the radioactive ligand solution is dispensed into a microplate at 50 μL/well, and the plate is sealed. It is allowed to stand at 37° C. for 2 hours. During this period, 50 mmol/L Tris-HCl (pH 7.4) is dispensed into a GF/B UniFilter plate at 50 μL/well and allowed to stand at 4° C. for 1 hour or longer. After that, filtration is performed with Cell harvester (PerkinElmer). The radioactive ligand solution is dispensed into an empty well of the GF/B UniFilter plate at 10 μL/well. After the GF/B UniFilter plate is dried at room temperature, MicroScinti 20 is dispensed into the GF/B UniFilter plate at 50 μL/well to seal the plate. The GF/B UniFilter plate is allowed to stand overnight at room temperature. The radioactivity of [^3H]-Mesulergine bound to the 5-HT2C receptor is measured using Microbeta2 (PerkinElmer) at a measurement time of 1 min/well. The Saturation curve is drawn from the measured value, and the Kd value is calculated from the slope of the Scatchard Plot.
(§4) (Binding Test of the Compound According to the Present Invention)
In advance, 0.5 μL of the compound solution dissolved in DMSO is dispensed into a microplate, and the cell membrane and the hot ligand are diluted with Assay buffer, respectively. Then, the Assay buffer containing the diluted cell membrane is dispensed into a microplate at 50 μL/well. Then, the radioactive ligand solution is dispensed into a microplate at 50 μL/well, and the plate is sealed. Then, it is allowed to stand at 37° C. for 2 hours. During this period, 50 mmol/L Tris-HCl (pH 7.4) is dispensed into a GF/B UniFilter plate at 50 μL/well and allowed to stand at 4° C. for 1 hour or longer. After that, filtration is performed with Cell harvester (PerkinElmer). After the GF/B UniFilter plate is dried at room temperature, MicroScinti 20 is dispensed into the GF/B UniFilter plate at 50 μL/well, and the plate is sealed. The GF/B UniFilter plate is allowed to stand overnight at room temperature. The radioactivity of [^3H]-Mesulergine bound to the 5-HT2C receptor is measured using Microbeta2 (PerkinElmer) at a measurement time of 1 min/well. The non-specific binding is calculated from the radioactivity of […] in the presence of 500 μmol/L Serotonin HCl which is the unlabeled ligand, and the total binding is calculated from the radioactivity of [^3H]-Mesulergine in the absence of the compound according to the present invention (Vehicle). Finally, the Ki value is calculated from the dose-response curve.
(§5) (The binding activity of the compound according to the present invention is calculated from the following binding inhibition rate (%).)
(§6) [formula] • a; mean cpm of non-specific binding • b; average cpm of total binding • c; cpm in the presence of the test compound

[2] = target: human recombinant 5-HT2A receptor (Homo sapiens (Human), UniProt P28223); assay: 5-HT2A receptor binding inhibition test ([3H]-Ketanserin); settings: Jump-In HEK cell membrane, 25° C. 1.5 hours
Description: Test Example 1: 5-HT2A Receptor Binding Inhibition Test
as §1
Cell membrane: 15 μg of Jump-In HEK cell membrane (expressing human recombinant 5-HT2A receptor) per well
as §2
Radioactive ligand: [^3H]-Ketanserin with a final concentration of around Kd value calculated by the following method
Non-specific ligand: Serotonin HCl with a final concentration of 500 μmol/L
as §3, with “at room temperature (25° C.)” for “at 37° C.”, “for 1.5” for “for 2”, “of [^3H]-Ketanserin” for “of [^3H]-Mesulergine”, “the 5-HT2A” for “the 5-HT2C”
as §4
In advance, 0.5 μL of the compound solution dissolved in DMSO is dispensed into a microplate, and the cell membrane and the hot ligand are diluted with Assay buffer, respectively. Then, the Assay buffer containing the diluted cell membrane is dispensed into a microplate at 50 μL/well. Then, the radioactive ligand solution is dispensed into a microplate at 50 μL/well, and the plate is sealed. Then, it is allowed to stand at room temperature (25° C.) for 1.5 hours. During this period, 50 mmol/L Tris-HCl (pH 7.4) is dispensed into a GF/B UniFilter plate at 50 μL/well and allowed to stand at 4° C. for 1 hour or longer. After that, filtration is performed with Cell harvester (PerkinElmer). After the GF/B UniFilter plate is dried at room temperature, MicroScinti 20 is dispensed into the GF/B UniFilter plate at 50 μL/well to seal the plate. The GF/B UniFilter plate is allowed to stand overnight at room temperature. The radioactivity of [^3H]-Ketanserin bound to the 5-HT2A receptor is measured using Microbeta2 (PerkinElmer) at a measurement time of 1 min/well. The non-specific binding is calculated from the radioactivity of [^3H]-Ketanserin in the presence of 500 μmol/L Serotonin HCl which is the unlabeled ligand, and the total binding is calculated from the radioactivity of [^3H]-Ketanserin in the absence of the compound according to the present invention (Vehicle). Finally, the Ki value is calculated from the dose-response curve.
as §5, §6

[3] = read-out: human serotonin 5-HT2C receptor binding activity Ki
[4] = read-out: human serotonin 5-HT2A receptor binding activity Ki

Sequence of human recombinant 5-HT2A receptor (P28223 whole entry): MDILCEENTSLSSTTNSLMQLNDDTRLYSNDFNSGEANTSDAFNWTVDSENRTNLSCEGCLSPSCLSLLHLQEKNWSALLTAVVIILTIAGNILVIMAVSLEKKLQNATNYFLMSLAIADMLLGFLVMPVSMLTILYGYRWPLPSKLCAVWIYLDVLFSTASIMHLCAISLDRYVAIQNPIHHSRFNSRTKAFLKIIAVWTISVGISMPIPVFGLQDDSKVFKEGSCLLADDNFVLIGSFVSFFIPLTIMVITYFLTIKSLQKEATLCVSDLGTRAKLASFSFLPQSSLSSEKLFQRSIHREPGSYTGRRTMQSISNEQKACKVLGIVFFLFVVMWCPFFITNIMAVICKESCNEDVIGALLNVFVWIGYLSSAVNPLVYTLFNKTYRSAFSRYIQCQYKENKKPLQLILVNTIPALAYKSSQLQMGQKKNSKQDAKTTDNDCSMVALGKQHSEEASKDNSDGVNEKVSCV
Sequence of human recombinant 5-HT2C receptor (P28335 33-458): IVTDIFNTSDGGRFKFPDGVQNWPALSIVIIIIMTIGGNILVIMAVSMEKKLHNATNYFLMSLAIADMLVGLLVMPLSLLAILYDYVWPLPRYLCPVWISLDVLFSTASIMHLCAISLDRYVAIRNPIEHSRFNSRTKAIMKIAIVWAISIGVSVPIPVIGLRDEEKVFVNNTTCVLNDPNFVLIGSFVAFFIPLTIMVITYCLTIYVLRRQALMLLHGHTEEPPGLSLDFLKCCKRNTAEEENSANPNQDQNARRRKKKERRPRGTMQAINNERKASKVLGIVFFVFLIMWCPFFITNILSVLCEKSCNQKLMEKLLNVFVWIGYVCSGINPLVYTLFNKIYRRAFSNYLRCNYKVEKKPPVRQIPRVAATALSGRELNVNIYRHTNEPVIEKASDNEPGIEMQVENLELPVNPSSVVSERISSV

SMILES	Ki ([1]; read-out: h-5-HT2C Ki)	Ki ([2]; read-out: h-5-HT2A Ki)	Ki [1, 3]	Ki [2, 4]
CN1CCC2(CC1)NC(N(Cc1ccc(OCC(F)(F)F)cc1)Cc1coc(C3CC3)n1)=NO2 [Compound I-086]	< 10 nM	< 10 nM		
CCCc1ccc(CN(Cc2coc(C)n2)C2=NOC3(CCN(C)CC3)N2)cc1 [Compound I-087]			0.787 nM	1.11 nM
COc1ccc2oc(CN(Cc3coc(C)n3)C3=NOC4(CCN(C)CC4)N3)nc2c1 [Compound I-088]	10 to 100 nM	10 to 100 nM		
Cc1nc(CN(Cc2nc3cc(Cl)ccc3o2)C2=NOC3(CCN(C)CC3)N2)co1 [Compound I-089]			5.46 nM	1.49 nM
Cc1nc(CN(Cc2cn3ccccc3n2)C2=NOC3(CCN(C)CC3)N2)co1 [Compound I-091]	100 to 500 nM	10 to 100 nM		
CCCCOc1ccc(CN(Cc2coc(C)n2)C2=NOC3(CCN(C)CC3)N2)c(Br)c1 [Compound I-092]	< 10 nM	< 10 nM		
Cc1nc(CN(Cc2ccc3c(c2)nnn3C)C2=NOC3(CCN(C)CC3)N2)co1 [Compound I-093]	100 to 500 nM	100 to 500 nM		
Cc1nc(CN(Cc2nc3ccccc3o2)C2=NOC3(CCN(C)CC3)N2)co1 [Compound I-094]	10 to 100 nM	10 to 100 nM		
Cc1nc(CN(Cc2cnc3ccccc3c2)C2=NOC3(CCN(C)CC3)N2)co1 [Compound I-095]	100 to 500 nM	10 to 100 nM		
Cc1nc(CN(Cc2ccc3ncccc3c2)C2=NOC3(CCN(C)CC3)N2)co1 [Compound I-096]	10 to 100 nM	< 10 nM		
Cc1nc(CN(Cc2ccc3ccccc3c2)C2=NOC3(CCN(C)CC3)N2)co1 [Compound I-097]	< 10 nM	< 10 nM		
Cc1nc(CN(Cc2nc3ccccc3s2)C2=NOC3(CCN(C)CC3)N2)co1 [Compound I-098]	10 to 100 nM	< 10 nM		
Cc1nc(CN(Cc2cc3ccccc3o2)C2=NOC3(CCN(C)CC3)N2)co1 [Compound I-099]			3.08 nM	0.96 nM
CC(C)COc1ccc(CN(Cc2ccn(C3CC3)n2)C2=NOC3(CCN(C)CC3)N2)cc1 [Compound I-100]	10 to 100 nM	< 10 nM		
Cc1ccc2cc(CN(Cc3coc(C)n3)C3=NOC4(CCN(C)CC4)N3)sc2c1 [Compound I-101]	< 10 nM	< 10 nM		
Cc1nc(CN(Cc2cc3ccc(Br)cc3s2)C2=NOC3(CCN(C)CC3)N2)co1 [Compound I-102]	< 10 nM	< 10 nM		
CN1CCC2(CC1)NC(N(Cc1cnn(C)n1)Cc1ccc(OCC(F)(F)C(F)(F)F)cc1F)=NO2 [Compound I-103]	< 10 nM	< 10 nM		
